The subject of this assay is PDE4. Briefly: Evaluation of PDE4 inhibitory activity, scintillation proximity assay. It counts as biochemical. To be noted: scintillation proximity assay; read-out: PDE4 Inhibitory Activity (Evaluation 1; concentration for the inhibition rate of 50%). A digest of the protocol:
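IC50 was derived from inhibition curves, referenced to an enzyme-free blank and a DMSO-only control. Compound, PDE4 preparation and tritiated cAMP reacted 120 min at RT in Tris-HCl buffer (pH 7.4) with MgCl2, EGTA and BSA; YSi-SPA beads with ZnSO4 bound product before scintillation counting.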
On the technique in general: Scintillation proximity formats need no separation of bound from free tracer.

From patent publication US12239643B2, “Therapeutic agent for inflammatory diseases, autoimmune diseases, fibrotic diseases, and cancer diseases” (MEIJI SEIKA PHARMA CO., LTD., priority 2018, dated 2025) come the findings set out here.

Regarding `OC(c1cc(-c2nccs2)c2oc(N3CC4CC(C3)N4)nc2c1OC(F)(F)F)C(F)F` (stereo not drawn) [Example 207, 1-(2-(3,6-Diazabicyclo[3.1.1]heptan-3-yl)-7-(thiazol-2-yl)-4-(trifluoromethoxy)benzo[d]oxazol-5-yl)-2,2-difluoroethan-1-ol], the IC50 is < 100 nM.

In the case of `COC(c1cc(-c2nccs2)c2oc(N3CC4CCC(C3)N4)nc2c1OC(F)(F)F)C(F)F` (stereo not drawn) [Example 209, 2-(3,8-Diazabicyclo[3.2.1]octan-3-yl)-5-(2,2-difluoro-1-methoxyethyl)-7-(thiazol-2-yl)-4-(trifluoromethoxy)benzo[d]oxazole], the IC50 was < 100 nM.

Regarding `COC(C)c1cc(-c2nccs2)c2oc(N3CC4CCC(C3)N4)nc2c1OC(F)(F)F` (stereo not drawn) [Example 210, 2-(3,8-Diazabicyclo[3.2.1]octan-3-yl)-5-(1-methoxyethyl)-7-(thiazol-2-yl)-4-(trifluoromethoxy)benzo[d]oxazole], the IC50 is < 100 nM.

As for `COC(C)c1cc(-c2nccs2)c2oc(N3CC4CC(C3)N4)nc2c1OC(F)(F)F` (stereo not drawn) [Example 211, 2-(3,6-Diazabicyclo[3.1.1]heptan-3-yl)-5-(1-methoxyethyl)-7-(thiazol-2-yl)-4-(trifluoromethoxy)benzo[d]oxazole], the IC50 is < 100 nM.

Consider `CC(=O)c1cc(-c2nccs2)c2oc(N3CC4CCC(C3)N4)nc2c1OC(F)(F)F` [Example 213, 1-(2-(3,8-Diazabicyclo[3.2.1]octan-3-yl)-7-(thiazol-2-yl)-4-(trifluoromethoxy)benzo[d]oxazol-5-yl)ethan-1-one], for which the IC50 is < 100 nM.

`COC(C)(c1cc(-c2nccs2)c2oc(N3CC4CC(C3)N4)nc2c1OC(F)(F)F)C(F)(F)F` (stereo not drawn) [Example 214, 2-(3,6-Diazabicyclo[3.1.1]heptan-3-yl)-7-(thiazol-2-yl)-5-(1,1,1-trifluoro-2-methoxypropan-2-yl)-4-(trifluoromethoxy)benzo[d]oxazole]: the IC50 is < 100 nM.

For `COC(C)(c1cc(-c2nccs2)c2oc(N3CC4CCC(C3)N4)nc2c1OC(F)(F)F)C(F)(F)F` (stereo not drawn) [Example 215, 2-(3,8-Diazabicyclo[3.2.1]octan-3-yl)-7-(thiazol-2-yl)-5-(1,1,1-trifluoro-2-methoxypropan-2-yl)-4-(trifluoromethoxy)benzo[d]oxazole], the IC50 was < 100 nM.

Take `CC(O)(c1cc(-c2nccs2)c2oc(N3CC4CC(C3)N4)nc2c1OC(F)(F)F)C(F)(F)F` (stereo not drawn) [Example 216, 2-(2-(3,6-Diazabicyclo[3.1.1]heptan-3-yl)-7-(thiazol-2-yl)-4-(trifluoromethoxy)benzo[d]oxazol-5-yl)-1,1,1-trifluoropropan-2-ol]: the IC50 is < 100 nM.

Regarding `CC(O)(c1cc(-c2nccs2)c2oc(N3CC4CCC(C3)N4)nc2c1OC(F)(F)F)C(F)(F)F` (stereo not drawn) [Example 217, 2-(2-(3,8-Diazabicyclo[3.2.1]octan-3-yl)-7-(thiazol-2-yl)-4-(trifluoromethoxy)benzo[d]oxazol-5-yl)-1,1,1-trifluoropropan-2-ol], the IC50 is < 100 nM.

Take `CCOC(c1ccc(-c2nccs2)c2oc(N3CC4CCC(C3)N4)nc12)C(F)(F)F` (stereo not drawn) [Example 220, 2-(3,8-Diazabicyclo[3.2.1]octan-3-yl)-4-(1-ethoxy-2,2,2-trifluoroethyl)-7-(thiazol-2-yl)benzo[d]oxazole]: the IC50 is < 100 nM.

With `FC(F)(F)COC(c1ccc(-c2nccs2)c2oc(N3CC4CCC(C3)N4)nc12)C(F)(F)F` (stereo not drawn) [Example 221, 2-(3,8-Diazabicyclo[3.2.1]octan-3-yl)-7-(thiazol-2-yl)-4-(2,2,2-trifluoro-1-(2,2,2-trifluoroethoxy)ethyl)benzo[d]oxazole], the IC50 was < 100 nM.

`COC(c1ccc(-c2nccs2)c2oc(N3CC4CCC(C3)N4)nc12)C(F)(F)F` (stereo not drawn) [Example 222, 2-(3,8-Diazabicyclo[3.2.1]octan-3-yl)-7-(thiazol-2-yl)-4-(2,2,2-trifluoro-1-methoxyethyl)benzo[d]oxazole]: the IC50 is < 100 nM.

On to `FC(F)(F)COC(c1ccc(-c2nccs2)c2oc(N3CC4CC(C3)N4)nc12)C(F)(F)F` (stereo not drawn) [Example 223, 2-(3,6-Diazabicyclo[3.1.1]heptan-3-yl)-7-(thiazol-2-yl)-4-(2,2,2-trifluoro-1-(2,2,2-trifluoroethoxy)ethyl)benzo[d]oxazole], for which the IC50 was < 100 nM.

As for `CCOC(c1ccc(-c2nccs2)c2oc(N3CC4CC(C3)N4)nc12)C(F)(F)F` (stereo not drawn) [Example 224, 2-(3,6-Diazabicyclo[3.1.1]heptan-3-yl)-4-(1-ethoxy-2,2,2-trifluoroethyl)-7-(thiazol-2-yl)benzo[d]oxazole], the IC50 is < 100 nM.

As to `OCCOC(c1ccc(-c2nccs2)c2oc(N3CC4CCC(C3)N4)nc12)C(F)(F)F` (stereo not drawn) [Example 225, 2-(1-(2-(3,8-Diazabicyclo[3.2.1]octan-3-yl)-7-(thiazol-2-yl)benzo[d]oxazol-4-yl)-2,2,2-trifluoroethoxy)ethan-1-ol], the IC50 was < 100 nM.

For the compound `N#CCOC(c1ccc(-c2nccs2)c2oc(N3CC4CC(C3)N4)nc12)C(F)(F)F` (stereo not drawn) [Example 226, 2-(1-(2-(3,6-Diazabicyclo[3.1.1]heptan-3-yl)-7-(thiazol-2-yl)benzo[d]oxazol-4-yl)-2,2,2-trifluoroethoxy)acetonitrile], the IC50 is < 100 nM.

On to `OCCOC(c1ccc(-c2nccs2)c2oc(N3CC4CC(C3)N4)nc12)C(F)(F)F` (stereo not drawn) [Example 227, 2-(1-(2-(3,6-Diazabicyclo[3.1.1]heptan-3-yl)-7-(thiazol-2-yl)benzo[d]oxazol-4-yl)-2,2,2-trifluoroethoxy)ethan-1-ol], for which the IC50 was < 100 nM.

With `N#CCOC(c1ccc(-c2nccs2)c2oc(N3CC4CCC(C3)N4)nc12)C(F)(F)F` (stereo not drawn) [Example 228, 2-(1-(2-(3,8-Diazabicyclo[3.2.1]octan-3-yl)-7-(thiazol-2-yl)benzo[d]oxazol-4-yl)-2,2,2-trifluoroethoxy)acetonitrile], the IC50 is < 100 nM.

Consider `COCCOC(c1ccc(-c2nccs2)c2oc(N3CC4CC(C3)N4)nc12)C(F)(F)F` (stereo not drawn) [Example 229, 2-(3,6-Diazabicyclo[3.1.1]heptan-3-yl)-7-(thiazol-2-yl)-4-(2,2,2-trifluoro-1-(2-methoxyethoxy)ethyl)benzo[d]oxazole], for which the IC50 was < 100 nM.

For the compound `OC1(COC(c2ccc(-c3nccs3)c3oc(N4CC5CC(C4)N5)nc23)C(F)(F)F)CC1` (stereo not drawn) [Example 232, 1-((1-(2-(3,6-Diazabicyclo[3.1.1]heptan-3-yl)-7-(thiazol-2-yl)benzo[d]oxazol-4-yl)-2,2,2-trifluoroethoxy)methyl)cyclopropan-1-ol], the IC50 was < 100 nM.

With `OC(O)(c1ccc(-c2nccs2)c2oc(N3CC4CCC(C3)N4)nc12)C(F)(F)F` [Example 233, 1-(2-(3,8-Diazabicyclo[3.2.1]octan-3-yl)-7-(thiazol-2-yl)benzo[d]oxazol-4-yl)-2,2,2-trifluoroethane-1,1-diol], the IC50 was < 100 nM.

As for `CC(O)(c1ccc(-c2nccs2)c2oc(N3CC4CCC(C3)N4)nc12)C(F)(F)F` (stereo not drawn) [Example 236, 2-(2-(3,8-Diazabicyclo[3.2.1]octan-3-yl)-7-(thiazol-2-yl)benzo[d]oxazol-4-yl)-1,1,1-trifluoropropan-2-ol], the IC50 was < 100 nM.

As to `COC(=O)c1ccc(-c2nccs2)c2oc(N3CC4CCC(C3)N4)nc12` [Example 237, Methyl 2-(3,8-diazabicyclo[3.2.1]octan-3-yl)-7-(thiazol-2-yl)benzo[d]oxazole-4-carboxylate], the IC50 was < 100 nM.

On to `O=C(O)c1ccc(-c2nccs2)c2oc(N3CC4CCC(C3)N4)nc12` [Example 238, 2-(3,8-Diazabicyclo[3.2.1]octan-3-yl)-7-(thiazol-2-yl)benzo[d]oxazole-4-carboxylic acid], for which the IC50 is < 100 nM.

On to `CC(O)c1ccc(-c2nccs2)c2oc(N3CC4CCCC(C3)N4)nc12` (stereo not drawn) [Example 239, 1-(2-(3,9-Diazabicyclo[3.3.1]nonan-3-yl)-7-(thiazol-2-yl)benzo[d]oxazol-4-yl)ethan-1-ol], for which the IC50 was < 100 nM.

For the compound `CC(O)c1ccc(-c2nccs2)c2oc(N3CC4CC(C3)N4)nc12` (stereo not drawn) [Example 240, 1-(2-(3,6-Diazabicyclo[3.1.1]heptan-3-yl)-7-(thiazol-2-yl)benzo[d]oxazol-4-yl)ethan-1-ol], the IC50 was < 100 nM.

On to `COC(C)c1ccc(-c2nccs2)c2oc(N3CC4CC(C3)N4)nc12` (stereo not drawn) [Example 241, 2-(3,6-Diazabicyclo[3.1.1]heptan-3-yl)-4-(1-methoxyethyl)-7-(thiazol-2-yl)benzo[d]oxazole], for which the IC50 was < 100 nM.

Take `COC(C)c1ccc(-c2nccs2)c2oc(N3CC4CCC(C3)N4)nc12` (stereo not drawn) [Example 242, 2-(3,8-Diazabicyclo[3.2.1]octan-3-yl)-4-(1-methoxyethyl)-7-(thiazol-2-yl)benzo[d]oxazole]: the IC50 was < 100 nM.

In the case of `COC(C)c1ccc(-c2nccs2)c2oc(N3CC4CCCC(C3)N4)nc12` (stereo not drawn) [Example 243, 2-(3,9-Diazabicyclo[3.3.1]nonan-3-yl)-4-(1-methoxyethyl)-7-(thiazol-2-yl)benzo[d]oxazole], the IC50 is < 100 nM.

For the compound `CC(=O)c1ccc(-c2nccs2)c2oc(N3CC4CC(C3)N4)nc12` [Example 244, 1-(2-(3,6-Diazabicyclo[3.1.1]heptan-3-yl)-7-(thiazol-2-yl)benzo[d]oxazol-4-yl)ethan-1-one], the IC50 is < 100 nM.

For the compound `CC(=O)c1ccc(-c2nccs2)c2oc(N3CC4CCC(C3)N4)nc12` [Example 245, 1-(2-(3,8-Diazabicyclo[3.2.1]octan-3-yl)-7-(thiazol-2-yl)benzo[d]oxazol-4-yl)ethan-1-one], the IC50 is < 100 nM.

On to `CC(C)(O)c1ccc(-c2nccs2)c2oc(N3CC4CCC(C3)N4)nc12` [Example 247, 2-(2-(3,8-Diazabicyclo[3.2.1]octan-3-yl)-7-(thiazol-2-yl)benzo[d]oxazol-4-yl)propan-2-ol], for which the IC50 is < 100 nM.

As to `O=C(O)COC(c1ccc(-c2nccs2)c2oc(N3CC4CC(C3)N4)nc12)C(F)(F)F` (stereo not drawn) [Example 253, 2-(1-(2-(3,6-Diazabicyclo[3.1.1]heptan-3-yl)-7-(thiazol-2-yl)benzo[d]oxazol-4-yl)-2,2,2-trifluoroethoxy)acetic acid], the IC50 is < 100 nM.
